# Results published in patent publication US7838256B2, “Assay and kit for drug efflux transporter activity” (Board of Regents of the University of Nebraska, priority 2007, dated 2010).
# Tests used:
# [1] = tested on: MDR proteins; assay: Intracellular accumulation of calcein in MDCK-MDR1 cells in the presence of therapeutic agents and trypan blue; settings: for Area Under the Curve ± SEM (intracellular calcein accumulation): monitored for 300 minutes; for interaction with MDR proteins (area under the curve of calcein vs control): summary statement
# Method: Intracellular accumulation was monitored for 300 minutes in a 96-well format and the area under curve for each treatment was determined. The larger the area under the curve, the greater the intracellular accumulation of calcein and, by extension, the greater the influence of the therapeutic agent on MDR protein activity.
# [2] = tested on: MDR proteins; assay: Intracellular accumulation of fluorescent drug efflux probes in MDCK-MDR1 cells with trypan blue; type: cell-based, human; settings: calcein-AM 1 μM, BCECF-AM 1 μM, rhodamine 123 3.2 μM, 0.04% or 0.1% trypan blue
# [3] = tested on: MDR proteins; assay: Intracellular accumulation of fluorescent drug efflux probes in Caco2 cells with trypan blue; type: cell-based, human; settings: calcein-AM 1 μM, BCECF-AM 1 μM, rhodamine 123 3.2 μM, 0.04% or 0.1% trypan blue
# Method: (§1) FIGS. 1A-1C show intracellular accumulation of calcein-AM (1 μM) in Madin-Darby canine kidney cells transfected with human MDR1 gene (MDCK-MDR1; FIG. 1A); human, […], colon adenocarcinoma cells (Caco2; FIG. 1B); and bovine brain microvessel endothelial cells (BBMEC, FIG. 1C) exposed to MDR1 inhibitor GF120918, MRP inhibitor indomethacin, or GF120918 in combination with indomethacin. Trypan blue (0.04%) was used to quench extracellular fluorescence.
# (§2) FIGS. 2A-2C show intracellular accumulation of BCECF-AM (1 μM) in MDCK-MDR1 (FIG. 2A), Caco2 (FIG. 2B), and BBMEC (FIG. 2C) cells exposed to MDR1 inhibitor GF120918, MRP inhibitor indomethacin, or GF120918 in combination with indomethacin. Trypan blue (0.04%) was used to quench extracellular fluorescence.
# (§3) FIGS. 3A-3C show intracellular accumulation of rhodamine 123 (3.2 μM) in MDCK-MDR1 (FIG. 3A), Caco2 (FIG. 3B), and BBMEC (FIG. 3C) cells exposed to MDR1 inhibitor GF120918, MRP inhibitor indomethacin, or GF120918 in combination with indomethacin. Trypan blue (0.1%) was used to quench extracellular fluorescence. […]
# [4] = tested on: MDR proteins; assay: Intracellular accumulation of fluorescent drug efflux probes in BBMEC cells with trypan blue; type: cell-based, bovine; settings: calcein-AM 1 μM, BCECF-AM 1 μM, rhodamine 123 3.2 μM, 0.04% or 0.1% trypan blue
# Method: as §1, §2, §3
# [5] = molecular target: T1, MDR1 (Homo sapiens, UniProt P08183)
# T1 sequence (P08183 whole entry, species assumed): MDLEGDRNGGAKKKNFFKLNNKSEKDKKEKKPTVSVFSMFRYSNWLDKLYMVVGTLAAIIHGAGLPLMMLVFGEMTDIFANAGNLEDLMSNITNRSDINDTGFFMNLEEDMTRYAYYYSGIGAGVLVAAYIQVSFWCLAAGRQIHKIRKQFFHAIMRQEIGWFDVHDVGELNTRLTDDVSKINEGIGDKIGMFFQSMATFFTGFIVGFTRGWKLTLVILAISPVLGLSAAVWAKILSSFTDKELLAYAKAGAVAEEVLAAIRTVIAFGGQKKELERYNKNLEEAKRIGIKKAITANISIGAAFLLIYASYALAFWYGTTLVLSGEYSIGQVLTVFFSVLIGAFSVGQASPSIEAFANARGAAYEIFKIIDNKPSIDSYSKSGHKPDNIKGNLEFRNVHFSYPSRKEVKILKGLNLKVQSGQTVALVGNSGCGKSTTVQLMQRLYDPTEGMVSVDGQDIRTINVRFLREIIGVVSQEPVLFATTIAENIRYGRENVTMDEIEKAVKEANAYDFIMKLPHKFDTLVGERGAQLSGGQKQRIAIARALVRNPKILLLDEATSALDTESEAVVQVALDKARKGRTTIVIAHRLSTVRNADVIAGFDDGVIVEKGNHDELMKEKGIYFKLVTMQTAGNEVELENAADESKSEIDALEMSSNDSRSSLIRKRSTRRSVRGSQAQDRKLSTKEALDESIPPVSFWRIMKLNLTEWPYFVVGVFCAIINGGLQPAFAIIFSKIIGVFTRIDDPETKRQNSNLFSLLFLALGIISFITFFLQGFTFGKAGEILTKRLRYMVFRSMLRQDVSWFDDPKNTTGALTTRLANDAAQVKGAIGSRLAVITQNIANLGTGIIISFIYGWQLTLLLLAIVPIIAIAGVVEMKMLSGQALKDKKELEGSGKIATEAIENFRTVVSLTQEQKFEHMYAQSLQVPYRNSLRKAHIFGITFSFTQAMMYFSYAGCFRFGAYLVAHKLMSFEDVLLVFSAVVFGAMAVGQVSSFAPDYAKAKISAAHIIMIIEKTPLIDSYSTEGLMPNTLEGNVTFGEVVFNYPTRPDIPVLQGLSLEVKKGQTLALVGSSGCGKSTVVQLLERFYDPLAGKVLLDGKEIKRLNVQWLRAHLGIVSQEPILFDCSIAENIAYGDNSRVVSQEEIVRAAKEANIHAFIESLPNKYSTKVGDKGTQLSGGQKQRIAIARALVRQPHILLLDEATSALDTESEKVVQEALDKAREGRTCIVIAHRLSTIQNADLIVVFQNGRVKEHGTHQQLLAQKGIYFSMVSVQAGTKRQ
# [6] = molecular target: T1, MDR1; settings: isolated membranes; Homolya et al. (1993); read-out: Kd as activator of MDR1; cited from earlier work
Compound,Ratio to Control (area under the curve) ([1]; 1 μM),Area Under the Curve ± SEM (intracellular calcein accumulation) ([1]; 1 μM),Ratio to Control (area under the curve) ([1]; 10 μM),Area Under the Curve ± SEM (intracellular calcein accumulation) ([1]; 10 μM),Ratio to Control (area under the curve) ([1]; 100 μM),Area Under the Curve ± SEM (intracellular calcein accumulation) ([1]; 100 μM),interaction with MDR proteins (area under the curve of calcein vs control) [1],"intracellular accumulation of calcein-AM, BCECF and rhodamine 123 [2]","intracellular accumulation of calcein-AM, BCECF and rhodamine 123 [3]","intracellular accumulation of calcein-AM, BCECF and rhodamine 123 [4]",also measured
"O=c1[nH]cc(F)c(=O)[nH]1 [5-Fluorouracil, 5-fluorouracil]",1.20,3.07 ± 0.217,1.30,3.33 ± 0.269,0.87,2.24 ± 0.322,–,–,–,–,–
CC(C)CN(C[C@@H](O)[C@H](Cc1ccccc1)NC(=O)O[C@H]1CCOC1)S(=O)(=O)c1ccc(N)cc1 [amprenavir],–,4.06 ± 0.518,–,5.44 ± 0.357,–,16.25 ± 0.798,strong interaction with MDR proteins,–,–,–,–
"Cc1nc2n(c(=O)c1CCN1CCC(c3noc4cc(F)ccc34)CC1)CCCC2 [Risperidone, risperidone]",1.53,3.92 ± 0.412,2.19,5.62 ± 0.259,6.64,17.02 ± 0.310,strong interaction with MDR proteins,–,–,–,–
COc1cc2c(cc1OC)CN(CCc1ccc(NC(=O)c3cccc4c(=O)c5cccc(OC)c5[nH]c34)cc1)CC2 [GF120918],–,–,–,–,–,–,–,increase in the intracellular accumulation,increase in the intracellular accumulation,increase in the intracellular accumulation,initial fluorescence (uptake of rhodamine 123 at a single time point) [5]: greater initial fluorescence; Ratio to Control (area under the curve) ([1]; 3.2 μM): 8.81; Area Under the Curve ± SEM (intracellular calcein accumulation) ([1]; 3.2 μM): 22.57 ± 0.729
COc1ccc2c(c1)c(CC(=O)O)c(C)n2C(=O)c1ccc(Cl)cc1 [indomethacin],–,–,–,–,–,–,–,increase in the intracellular accumulation,increase in the intracellular accumulation,increase in the intracellular accumulation,–
calcein-acetoxy-methylester [Calcein-AM],–,–,–,–,–,–,–,–,–,–,Kd [6]: ≤ 1000 nM
